Reference: patent publication US5573922A, “Immunological detection method for triazines” (Boehringer Mannheim GmbH, priority 1993, dated 1996)

How the values were obtained:
[1] = tested on: antiserum S 4612 (sheep antiserum against triazine); assay: Competitive ELISA, sheep triazine antiserum with heterologous POD conjugate atra(deethyl-4-ED)-SATP-PODp(MH); assay type: binding; conditions: 50 mU/ml; for lower detection limit: concentration at which signal is 80% of maximum signal; for cross reaction (%): relative to terbutylazine (quotient of hapten concentrations at half maximum signal)
Procedure: 10 sheep are immunized with triazine immunogen according to example 1 in Freund's adjuvant. The dose is […] per animal. The immunizations are repeated over six months or longer, each at intervals of 4 weeks. Antiserum samples are taken from all animals once per month and examined for the presence of triazine antibodies. For this purpose a series of terbutylazine standards are measured in a competitive ELISA using the heterologous POD conjugate atra(deethyl-4-ED)-SATP-POD(MH) according to example 3. The procedure for this measurement is described in detail in example 5.
(§1) Microtitre plates (Maxisorp F96,Nunc Co. Order No. 4-42404) are coated with antibodies against the Fc part of sheep IgG which have been obtained by immunosorptive purification of the IgG fraction from donkey antiserum. The donkey antibody is dissolved in the coating buffer at a concentration of 10 µg/ml protein and 100 μl of this solution is pipetted into each well of the microtitre plate. After incubating for 1 hour at room temperature while shaking, the solution is discarded and the plate is washed three times with washing solution.
(§2) Sheep antiserum against triazine is diluted 1:50,000 with incubation buffer. Each well of the microtitre plate is coated with 100 μl of the diluted solution. During the incubation period (1 hour, conditions as above) the IgG molecules from the sheep serum bind to the donkey antibodies bound to the wall. They are subsequently washed as above.
A series of solutions is prepared which contain terbutylazine at concentrations of 1000/500/250/125/62.5/31/16/8/4/0 ng/l as well as the conjugate atra(deethyl-4-ED)-SATP-PODp(MH) according to the invention at a standard concentration of 50 mU/ml in the incubation buffer.
Dilution series of other triazines are prepared in a similar manner with maximum concentrations of […] (atrazine, cyanazine and desethylterbutylazine), 10,000 ng/l (propazine, simazine, desethylatrazine) and 100,000 ng/l (desisopropylatrazine) and dilution steps of 1:2 which also contain the said hapten-POD conjugate.
(§3) The wells of the microtitre plate which were precoated as previously described, are filled with these solutions (100 μl in each case), incubated for 1 hour and subsequently washed as described.
(§4) The free hapten molecules compete with the hapten-POD conjugate for the limited amount of hapten-specific antibodies on the wall of the wells. The less conjugate is bound the more free hapten is present in the solution and the better the hapten is recognized by the antibodies.
(§5) Every well is filled with 100 μl substrate solution and incubated while shaking until the colour development in the samples without hapten appears subjectively to be high enough. Then the absorbance in all wells is determined as a differential measurement at the wavelengths 405/492 nm.
(§6) In the graph of the measured signal as a function of the hapten concentration used, the "relative affinity", i.e. the hapten concentration whose measured signal is half the size of the maximum signal (at a hapten concentration of 0), is determined for each triazine compound. In this process a linear interpolation is made between selected measurement points on the curve. This gives the cross-reaction of the triazines in relation to terbutylazine as the quotient [formula]
(§7) The "lower limit of detection" is determined in an analogous manner for each triazine compound as the concentration at which the measured signal is 80% of the maximum signal.

[2] = tested on: antiserum S 4612 (sheep antiserum against triazine); assay: Competitive ELISA, sheep triazine antiserum with homologous POD conjugate atra(terbutyl-6ah)-OSu-POD; assay type: binding; conditions: 30 mU/ml; for lower detection limit (ng/l) / lower detection limit: concentration at which signal is 80% of maximum signal; for cross reaction (%): relative to terbutylazine (quotient of hapten concentrations at half maximum signal)
Procedure: as §1, §2, §3, §4, §5, §6, §7
In a second experiment the cross reaction and the lower limit of detection for each of the above-mentioned triazines is determined in an analogous manner using the homologous conjugate atra(terbutyl-6ah)-OSu-POD. In this case the POD concentration is 30 mU/ml. The highest hapten concentrations are 10,000 ng/l for terbutylazine and 100,000 ng/l for all triazines.
Eight further hapten concentrations are prepared by serial dilution of these solutions in a ratio of 1:2 and a blank value without triazine is determined in each case.

SMILES	lower detection limit [1] [ng/L]	cross reaction (%) [1] [%]	lower detection limit (ng/l) [2]	cross reaction (%) [2] [%]	lower detection limit [2] [ng/L]
CC(C)Nc1nc(N)nc(Cl)n1 [desethylatrazine]	90	7	9,500 ng/l	< 0.3	
CC(C)Nc1nc(Cl)nc(NC(C)C)n1 [propazine]	24	26		8	620
CC(C)(C)Nc1nc(N)nc(Cl)n1 [desethylterbutylazine]	10	102		9	430
CCNc1nc(Cl)nc(NC(C)C)n1 [atrazine]	17	73	1,600 ng/l	4	
CCNc1nc(Cl)nc(NC(C)(C)C#N)n1 [cyanazine]	10	102		11	310
CCNc1nc(Cl)nc(NC(C)(C)C)n1 [terbutylazine]	12	100		100	100
CCNc1nc(Cl)nc(NCC)n1 [simazine]	60	10		0.9	4.100
